US20200369616A1, “ALKOXYCARBONATE ESTER PRODRUGS FOR USE AS ANTIMALARIAL AGENTS” (OREGON HEALTH & SCIENCE UNIVERSITY, priority 2019, published 2020)
Converted amounts (≈) assume the structure as drawn. “Also recorded” adds a separate entry of the source. Read-outs that look alike come from different tables or passages of the source. Values belong to the molecule of their own block, whether it stands above or below them.

What was measured:
[1] = test system: multidrug resistant P. falciparum strains; conditions: cited from earlier work
ATV resistant parasites = conditions: cited from earlier work
malaria-infected mice = conditions: cited from earlier work
[2] = mouse microsomes; cited from earlier work
[3] = rat microsomes; cited from earlier work
[4] = human microsomes; cited from earlier work
P. falciparum cyt bc1 = P. falciparum cyt bc1 (Plasmodium falciparum, UniProt Q02768); conditions: cited from earlier work
P. falciparum cyt bc1, sequence (Q02768 whole entry): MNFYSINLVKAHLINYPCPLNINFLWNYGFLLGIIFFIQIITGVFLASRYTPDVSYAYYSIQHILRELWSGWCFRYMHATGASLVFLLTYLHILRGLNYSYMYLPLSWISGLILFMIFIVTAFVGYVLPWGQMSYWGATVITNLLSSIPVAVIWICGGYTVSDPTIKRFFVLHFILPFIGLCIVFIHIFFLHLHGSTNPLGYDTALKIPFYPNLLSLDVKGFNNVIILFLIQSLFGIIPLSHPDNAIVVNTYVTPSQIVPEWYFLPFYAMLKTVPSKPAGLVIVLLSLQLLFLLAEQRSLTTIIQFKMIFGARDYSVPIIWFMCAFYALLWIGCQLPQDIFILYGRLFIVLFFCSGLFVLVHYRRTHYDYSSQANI

[5] = cited by Chatterjee, CALIBR model system; cited from earlier work
[6] = Estimation of compound solubility in sesame oil; assay type: physicochemical; conditions: room temperature, remained in solution for at least 72 hrs; for solubility: sesame oil, oil or lipid, thermodynamic from solid
Procedure: Generalized method for estimation of compound solubility in sesame oil: Sesame oil (10 μl) was dispensed into a glass vial containing 10 mg of the appropriate ELQ-300 prodrug. The mixture was vortexed and warmed (using a heat gun) to aid dissolution. The solubility of the compound was judged after the sesame oil mixture cooled to room temperature. If the compound was not completely dissolved, additional sesame oil was added in low-volume increments. Importantly, complete dissolution was assured by confirming by visual inspection that the compound remained in solution for at least 72 hrs at room temperature.

[7] = Pharmacokinetics of intramuscular (im) injections of ELQ-300 prodrugs in sesame oil in mice; assay type: in vivo; conditions: at every time point after im injection, Trial 2
Procedure: We dissolved ELQ-331 in sesame oil and administered (30 mg/kg) in a single […] injection into the caudal thigh of mice in two separate trials. Trial 1 served as a pilot study to monitor ELQ-300 blood levels for months following a single im injection. In Trial 2 we adjusted the LC-MS/MS chromatographic protocol to capture prodrug [ELQ-331] as well as [ELQ-300] with early time-points to cover the critical burst phase, a phenomenon known as “dose dumping”. […] In Trial 2, we monitored plasma [ELQ-331] and [ELQ-300] starting 6 hours after im injection. To avoid excessive blood draws, 6 different groups of 4 mice, all treated at the same time, were used in a rotating succession, one group for each time point. FIG. 1 depicts Plasma [ELQ-300], nM, following im injection in mice of 30 mg/kg ELQ-331 (prodrug) in sesame oil. […] At all time-points the [ELQ-300] concentration exceeds the Minimum Fully Effective Concentration (MEC100) of ≈60 nM. All data points are the average values±SEM.
Also shown in FIG. 5 is a composite plot of plasma [ELQ-300] from both trials with remarkable consistency in the results. ELQ-331 outperformed the CALIBR ELQ-300 prodrug (mCAR246) profiled at the 2017 ASTMH meeting by a significant margin, i.e., Day 28 bloodstream [ELQ-300] levels for mCAR246=181±59 (30 mg/kg, unknown formulation) vs. 446±22 nM (avg.±SEM) for prodrug ELQ-331 in (30 mg/kg, sesame oil).

[8] = test system: P. yoelii luciferase expressing parasites (PyXNL non-lethal strain, luc+); experiment: Protection against P. yoelii sporozoite-induced infection in mice (bioluminescence imaging); assay type: in vivo, Plasmodium yoelii
Procedure: Animals receiving an im injection of 30 mg/kg ELQ-331 in sesame oil were challenged by inoculation with 10,000 P. yoelii luciferase expressing parasites (PyXNL non-lethal strain, luc^+) at two different time points, 48 days and 137 days post im injection (Note that separate groups of mice were used for these two challenges). For details of our experimental methods please refer to the work proposed section as well as published papers by Qigui Li (17) and Kami Kim (18). Sporozoites were obtained by dissection of infected mosquitoes, A. stephensi, and purification over glass wool with assistance from Dr. Brandon Wilder (formerly Sack), who recently joined the OHSU faculty (see letter of collaboration). Non-invasive whole animal
Bioluminescence imaging (BLI) was used to evaluate all study animals for the presence of liver stage infection using an IVIS Spectrum imager. Briefly, on the day of analysis mice received a single ip injection with a luciferin solution roughly 10 minutes before imaging. Each animal was placed on the IVIS platform with gaseous isoflurane serving as anesthetic. […] Of interest, we also challenged animals that had received an im injection (dissolved in sesame oil) of two similar ELQ-300 prodrugs, PSPS-173 and PSP6-16F.
Bioluminescent imaging (FIG. 2) was used to analyze the protective effect of im ELQ-300 prodrugs on Plasmodium yoelii liver stages. Mice were infected by inoculation with 10,000 Plasmodium yoelii GFP/luciferase expressing parasites (PyXNL non-lethal strain, luc*). As described in the narrative infected mice received sporozoite injections 48 days and 137 days following im injection with selected ELQ-300 prodrugs dissolved in sesame oil. After sporozoite challenge, mice underwent imaging for detection of bioluminescent signal after 24 and 48 hours and then again on Day 6 post-inoculation. Control mice show bioluminescent signal in the region above the liver of anesthetized mice after 24 hours which becomes more intense by 48 hours after which parasites emerge into the bloodstream as evidenced by widespread signal intensity across the entire animal by 6-days post inoculation.

[9] = test system: patent malaria infections in mice; conditions: oral drug delivery, single dose; cited from earlier work
[10] = challenge 137 days (4½ months) after single im injection in sesame oil

SMILES: COc1cc2[nH]c(C)c(-c3ccc(Oc4ccc(OC(F)(F)F)cc4)cc3)c(=O)c2cc1Cl [ELQ-300, 6-Chloro-7-methoxy-2-methyl-3-[4-[4-(trifluoromethoxy)phenoxy]phenyl]-4(1H)-quinolinone]
IC50's vs. multidrug resistant P. falciparum strains [1]: low nanomolar
potency vs. ATV resistant parasites (ATV resistant parasites): equal potency
ED50 (malaria-infected mice; 4-day Peters Test): 0.02 mg/kg
curative dose (malaria-infected mice; 4-day Peters Test): 0.3 to 1 mg/kg
fold more effective than ATV in vivo in treatment of malaria-infected mice (malaria-infected mice; relative to ATV): 30 fold
metabolic stability [2]: metabolically stable
metabolic stability [3]: metabolically stable
metabolic stability [4]: metabolically stable
selectivity for the parasite over the host cyt bc1 (P. falciparum cyt bc1): 10,000 fold
minimum effective concentration (plasma ELQ-300) [5]: 83 nM

SMILES: CCOC(=O)OCOc1c(-c2ccc(Oc3ccc(OC(F)(F)F)cc3)cc2)c(C)nc2cc(OC)c(Cl)cc12 [ELQ-331, ((6-chloro-7-methoxy-2-methyl-3-(4-(4-(trifluoromethoxy)phenoxy)phenyl)quinolin-4-yl)oxy) methyl ethyl carbonate]
solubility [6]: 125 mg/mL (≈ 216 mM)
ratio of ELQ-300/ELQ-331 in plasma [7]: very large
protection against sporozoite challenge ([8]; challenge 48 days after single im injection in sesame oil): fully protected
protection against sporozoite challenge [8, 10]: complete protection; also recorded: fully protected
duration of protection in mice with a single im injection ([8]; single im injection): more than 4 months
bioluminescent signal (liver stage infection) ([8]; sporozoite challenge 48 days after 30 mg/kg im injection (Trial 2)): no detectable bioluminescent signal
bioluminescent signal (liver stage infection) ([8]; sporozoite challenge 137 days after 30 mg/kg im injection (Trial 1)): no detectable bioluminescent signal
cure of patent malaria infections in mice [9]: single dose cures

Sesame Oil Solubility [6]: 91 mg/mL
SMILES: COC(=O)OCOc1c(-c2ccc(Oc3ccc(OC(F)(F)F)cc3)cc2)c(C)nc2cc(OC)c(Cl)cc12 [ELQ-487]

Sesame Oil Solubility [6]: 83 mg/mL
SMILES: CCCOC(=O)OCOc1c(-c2ccc(Oc3ccc(OC(F)(F)F)cc3)cc2)c(C)nc2cc(OC)c(Cl)cc12 [ELQ-488]

Sesame Oil Solubility [6]: 71 mg/mL
SMILES: CCCCOC(=O)OCOc1c(-c2ccc(Oc3ccc(OC(F)(F)F)cc3)cc2)c(C)nc2cc(OC)c(Cl)cc12 [ELQ-489]

solubility [6]: 83 mg/mL (≈ 134 mM)
melting point: 109 °C
SMILES: CCCCCOC(=O)OCOc1c(-c2ccc(Oc3ccc(OC(F)(F)F)cc3)cc2)c(C)nc2cc(OC)c(Cl)cc12 [ELQ-490, ((6-chloro-7-methoxy-2-methyl-3-(4-(4-(trifluoromethoxy)phenoxy)phenyl)quinolin-4-yl)oxy)methyl pentyl carbonate]

solubility [6]: 100 mg/mL (≈ 158 mM)
melting point: 79 °C
SMILES: CCCCCCOC(=O)OCOc1c(-c2ccc(Oc3ccc(OC(F)(F)F)cc3)cc2)c(C)nc2cc(OC)c(Cl)cc12 [ELQ-491, ((6-chloro-7-methoxy-2-methyl-3-(4-(4-(trifluoromethoxy)phenoxy)phenyl)quinolin-4-yl)oxy)methyl hexyl carbonate]

SMILES: CCCCCCCOC(=O)OCOc1c(-c2ccc(Oc3ccc(OC(F)(F)F)cc3)cc2)c(C)nc2cc(OC)c(Cl)cc12 [ELQ-492, ((6-chloro-7-methoxy-2-methyl-3-(4-(4-(trifluoromethoxy)phenoxy)phenyl)quinolin-4-yl)oxy)methyl heptyl carbonate]
solubility [6]: 71 mg/mL (≈ 110 mM)

solubility [6]: 100 mg/mL (≈ 151 mM)
melting point: 54 °C
SMILES: CCCCCCCCOC(=O)OCOc1c(-c2ccc(Oc3ccc(OC(F)(F)F)cc3)cc2)c(C)nc2cc(OC)c(Cl)cc12 [ELQ-493, ((6-chloro-7-methoxy-2-methyl-3-(4-(4-(trifluoromethoxy)phenoxy)phenyl)quinolin-4-yl)oxy)methyl octyl carbonate]

Sesame Oil Solubility [6]: 333 mg/mL
SMILES: CCCCCCCCCOC(=O)OCOc1c(-c2ccc(Oc3ccc(OC(F)(F)F)cc3)cc2)c(C)nc2cc(OC)c(Cl)cc12 [ELQ-494]

solubility [6]: ≥ 500 mg/mL
melting point: 55 °C
SMILES: CCCCCCCCCCOC(=O)OCOc1c(-c2ccc(Oc3ccc(OC(F)(F)F)cc3)cc2)c(C)nc2cc(OC)c(Cl)cc12 [ELQ-495, ((6-chloro-7-methoxy-2-methyl-3-(4-(4-(trifluoromethoxy)phenoxy)phenyl)quinolin-4-yl)oxy)methyl decyl carbonate]

SMILES: CCCCCCCOC(=O)OCOc1c(-c2ccc(Oc3ccc(OC(F)(F)F)cc3)cc2)c(C)nc2cc(OC)c(Cl)cc12 [PSP5-173]
protection against sporozoite challenge [8, 10]: partially protected
mice that developed blood stage infection ([8]; challenge 137 days after im injection): One of three
